From patent US7201899B2, “Materials and methods for management of hyperacute rejection in human xenotransplantation” (BresaGen Limited, priority 1994, dated 2007)

Test system: porcine cells (PAE's and PK1's)
Assay: Complement-mediated lysis of porcine cells (51CR release and LDH release assays)
Assay type: cell-based
Settings: effective sugar concentrations covered about 10 mM
Experimental: The ability of human serum to cause the lysis of porcine cells was examined using both pig epithelial (PK1) and aortic endothelial (PAE's) cells, the isolation and culture of which is described in Example 2. Cell lysis was determined using either the ^51Chromium release assay as described by Cerottini and Brunner, Nature New Biol. 237:272, 1972 or the Cytotox LDH release assay according to the manufacturer's instructions (Promega, USA).
A. ^51CR Release Assay • 1. Preparation of Cells: • a) Trypsinize a confluent flask of cells. On average, approximately 3×10^6 PAE's and approximately 3×10^7 PK1 cells are obtained per 10 ml flask. About 1×10^5 cells are required for each well in the 5CR Release Assay. • b) Wash cells […] in 10 ml RPMI (no FCS); spin 1200 rpm for 5 min. • c) Resuspend cells in 100 μl RPMI (with 10% heat-inactivated FCS; see below). • 2. […]

With `O=C[C@H](O)[C@@H](O)[C@H](O)[C@H](O)CO[C@H]1O[C@H](CO)[C@H](O)[C@H](O)[C@H]1O` [Melibiose, 6-O-α-D-galactopyranosyl-D-glucose] the “protection of porcine cells from complement-induced lysis” value was “protects the porcine cells from lysis”.
